PubChem BioAssay (NCI)
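1) Cells in 96-well plates. 2) Compound, 48 h, 5 concentrations. 3) Linear interpolation between surrounding doses. 4) Unreached endpoint = highest concentration. The concentration for 50% growth inhibition is given as GI50. TGI: concentration producing complete growth inhibition.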

Experiments:
Experiment in all cases: NCI anticancer screen, dose series, 48 h
786-0 renal = tested on: 786-0 renal
COLO 205 colon = tested on: COLO 205 colon
DU-145 prostate = tested on: DU-145 prostate
HT29 colon = tested on: HT29 colon
KM12 colon = tested on: KM12 colon
OVCAR-5 ovarian = tested on: OVCAR-5 ovarian
OVCAR-8 ovarian = tested on: OVCAR-8 ovarian
RPMI-8226 leukemia = tested on: RPMI-8226 leukemia
UACC-257 melanoma = tested on: UACC-257 melanoma
UACC-62 melanoma = tested on: UACC-62 melanoma

Row | SMILES | TGI (786-0 renal) [nM] | TGI (COLO 205 colon) [nM] | TGI (DU-145 prostate) [nM] | TGI (HT29 colon) [nM] | TGI (KM12 colon) [nM] | TGI (OVCAR-5 ovarian) [nM] | TGI (OVCAR-8 ovarian) [nM] | TGI (RPMI-8226 leukemia) [nM] | TGI (UACC-257 melanoma) [nM] | TGI (UACC-62 melanoma) [nM] | GI50 (786-0 renal) [nM] | GI50 (COLO 205 colon) [nM] | GI50 (DU-145 prostate) [nM] | GI50 (HT29 colon) [nM] | GI50 (KM12 colon) [nM] | GI50 (OVCAR-5 ovarian) [nM] | GI50 (OVCAR-8 ovarian) [nM] | GI50 (RPMI-8226 leukemia) [nM] | GI50 (UACC-257 melanoma) [nM] | GI50 (UACC-62 melanoma) [nM]
1 | CN(C)CC1CCCC1=O (stereo not drawn) | 16000 | 1840 | > 46900 | 2060 | 5850 | 12500 | 8940 | 1930 | 3500 | 11200 |  |  |  |  |  |  |  |  |  | 
2 | CCCCCn1sc(=O)n(Cc2ccc(CNC(=O)OCc3ccc4cccc(O)c4n3)cc2)c1=O | 2890 | 3750 | 3090 | 3350 | 8910 | 3090 | 9890 | 11200 | 3080 | 2870 | 1170 | 1590 | 1600 | 1890 | 2780 | 1680 | 1850 | 1560 | 1570 | 1510
3 | Cc1nc2ccccc2c(/C=C/c2ccc(Br)cc2)c1C(=O)/C=C/c1ccccc1 | 3180 | 3470 | 3150 | 6580 | 4370 | 3370 | 3480 | 5100 | 3220 | 3010 | 1640 | 1510 | 1620 | 1480 | 1950 | 1840 | 1570 | 1380 | 1680 | 1540
4 | CCN1C(=O)N(CC)C2C1NN=c1s/c(=C3\C(=O)N(CCc4ccccc4)c4ccccc43)c(=O)n12 (stereo not drawn) | 13500 | 1800 | 6950 | 1580 | 11200 |  | > 43100 |  | > 100000 | 11500 | 1040 | 322 | 558 | 351 | 380 | 927 | 740 | 608 | 3770 | 637
5 | Cn1cc(-c2nonc2-c2cn(C)c3ccccc23)c2ccccc21 | > 100000 | > 100000 | > 100000 | > 100000 | > 100000 | > 100000 | > 100000 | > 100000 | > 100000 | > 100000 | 1630 | 2540 | 1270 | 519 | 661 | 4510 | 1500 | 967 | 50400 | 442
6 | CN(C)c1ccc(N=Nc2ccncc2)cc1 | > 100000 | > 100000 | > 100000 | > 100000 | > 100000 | > 100000 | > 100000 | > 100000 | > 100000 | > 100000 |  |  |  |  |  |  |  |  |  | 
7 | COc1ccc(/C=N/NC(=O)Cn2c(-c3ccc(S(C)(=O)=O)cc3)nc3cc(Cl)ccc32)cc1 | > 50000 | 2420 | > 50000 | 7190 | > 50000 | > 50000 | > 50000 | 11400 | > 50000 | > 50000 | 1660 | 907 | 1950 | 689 | 979 | 3540 | 1790 | 1430 | > 50000 | 709
